# From patent US6140311A, “Therapy by intrathecal administration of antitumor agent FUDR” (priority 1997, dated 2000)
# Key:
# [1] = test system: meningeal dissemination of malignant tumours; experiment: Clinical results of intrathecal chemotherapy with FUDR via Ommaya reservoir;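 also: 13 patients with meningeal spread from various primary tumours, treatment length adjusted to disease symptoms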
# Protocol: The drug was given at a dose of 1 to 10 μg/body a day, three times a week. The period of administration was varied from 3 to 8 weeks in accordance with the symptoms of the disease.
# 203 glioma cells = experiment: In vivo antitumor effect of intrathecal FUDR in mouse meningeal carcinomatosis model; parameters: species or system C57/BL6 mice; details: daily for 5 consecutive days, control group all dead
# Protocol: Six-week-old C57/BL6 mice divided into groups of 22 or 23 were used to prepare models of meningeal carcinomatosis by directly puncturing the cisterna magna with a 26-gauge needle under anesthesia with ethyl ether and injecting transplantable 203 glioma cells (5×10^5 cells/0.05 ml). The mice were given a specified dose of FUDR by intrathecal injection (0, 25, 50, 100 or 250 μg/0.05 ml/head) daily for 5 consecutive days following the day of transplant.
# [2] = Toxicity of intrathecal FUDR in normal mice (body weight, symptoms, brain histology); type: in vivo, C57/BL6 mice; details: for body weight variation: days 0, 2, 4, 6
# Protocol: Normal C57/BL6 mice divided into groups of 20 were given FUDR by intrathecal injection at a specified dose (0, 10, 25, 50 or 100 μg/0.05ml/head) on the day of start of the experiment, 2 days, 4 days and 6 days after the start. Two months after the completion of administration of the drug, the mice were all sacrificed, and brain tissues were collected, followed by hematoxylin & eosin staining and Kluver Barrera staining for histological investigation.
# meningeal carcinomatosis = details: intrathecal MTX; cited from earlier work
# [3] = 1 to 10 μg/body a day intrathecal, three times a week, 3 to 8 weeks
# [4] = per patient, before→after, CSF obtained by anterial horn of lateral ventricle
# [5] = per patient, 1 to 10 μg/body a day intrathecal, three times a week, 3 to 8 weeks
# [6] = high-dose group 100 μg/0.05 ml intrathecal
SMILES,"efficacy, summary of 13 patients [1, 3]","side effects, summary of 13 patients [1, 3]","Cell numbers Ventricular CSF [1, 4]","Protein Ventricular CSF [1, 4]","Cell numbers Spinal CSF ([1]; per patient, before→after, CSF obtained by lumbar puncture)","Response on CSF findings [1, 5]","Side effects [1, 5]",survivors on day 14 postimplantation (203 glioma cells; 100 μg/0.05 ml/head intrathecal),survivors on day 14 postimplantation (203 glioma cells; 250 μg/0.05 ml/head intrathecal),neurotic manifestation during and after administration ([2]; all dose groups 10-100 μg/0.05 ml intrathecal),"histological changes in cranial nerve tissues (hematoxylin & eosin, Kluver Barrera staining) ([2]; high-dose (100 μg/0.05 ml) group, two months after completion of administration)","side effects such as diarrhea [2, 6]","body weight variation [2, 6]",body weight variation ([2]; medium-dose group 50 μg/0.05 ml intrathecal),body weight variation ([2]; small-dose group 10 μg/0.05 ml intrathecal),body weight variation ([2]; small-dose group 25 μg/0.05 ml intrathecal),side effects limiting the dose (meningeal carcinomatosis)
"O=c1[nH]c(=O)n([C@H]2C[C@H](O)[C@@H](CO)O2)cc1F [FUDR, 5-fluoro-deoxyuridine]","diminutions of tumor marker, CSF cells and protein in CSF","none of side effects such as toxicity to the digestive tracts, neurotoxicity, myelosuppression, and dysfunction of the liver and kidney",50.fwdarw,147.fwdar,144.fwdar,No and Response and No Response,None,21 survivors among 22 animals,21 survivors among 22 animals,none of the mice developed neurotic manifestation,none of the mice exhibited abnormalities in the cranial nerve tissues,free of side effects such as frequent diarrhea,transient weight decrease,no weight decrease whatever,no weight decrease whatever,no weight decrease whatever,
"CN(Cc1cnc2nc(N)nc(N)c2n1)c1ccc(C(=O)N[C@@H](CCC(=O)O)C(=O)O)cc1 [MTX, methotrexate]",,,,,,,,,,,,,,,,,Acute neurotoxicity and retarded necrotizing encephalopathy
